The values below come from patent US7854940B2, “Broad spectrum preservation blends” (Arch Chemicals, Inc., priority 2004, dated 2010).

Holding throughout (assay): Challenge test in broth
Holding throughout (assay type): cell-based
What all share (conditions): Tryptic Soy Broth, blend added at 0.5% v/v

For test [1], the system named is mixed molds Aspergillus niger (ATCC 6275) and a Penicillium sp. cosmetic isolate. The source says: (§1) A challenge protocol similar to the CTFA method was followed to assess efficacy against a broad spectrum of microorganisms. The four separate inocula were: Staphylococcus aureus (ATCC 6538), Pseudomonas aeruginosa (ATCC 9027) and Enterobacter gergoviae (cosmetic isolate), Candida albicans (ATCC 10231), and mixed molds Aspergillus niger (ATCC 6275) and a Penicillium sp. cosmetic isolate. Tubes containing 20 milliliters of broth were inoculated with approximately 1,500,000 bacteria per gram, 50,000 yeast cells per gram or 100,000 mold spores per gram. Individual challenges were prepared from overnight slants of bacteria and yeast cultures and from heavily sporulating mold cultures, 7 to 10 days old. All samples were plated quantitatively for viable organisms after 24 hours and 8 days.

In test [2] the test system is Pseudomonas aeruginosa (ATCC 9027) and Enterobacter gergoviae (cosmetic isolate).
Description: as §1

Test [3] has as its system Candida albicans (ATCC 10231).
Description: as §1

Test [4] concerns Staphylococcus aureus (ATCC 6538).
Description: as §1

On to `OCCOc1ccccc1` [2-Phenoxyethanol], for which the “Colony Forming Units per Milliliter of Broth (CFU/ml) after 8 Days” value in test [1] is 5.8 × 10^2 CFU/ml; in test [2], 9.1 × 10^7 CFU/ml; in test [3], 4.0 × 10^3 CFU/ml; in test [4] it was 3.2 × 10^8 CFU/ml.
